Assay results as given in patent publication US5951473A, “Determination of intracellular sodium and potassium ions by NMR” (Board of Regents, The University of Texas System, priority 1997, dated 1999).
Entries after “also recorded” stand apart in the source; their conditions may differ.

Experiments:
[1] = test system: rat liver; conditions: in vivo, iv
Method: (§1) Animal Preparation: Male Sprague-Dawley rats weighing 350-450 g were initially anesthetized by intramuscular injection of a 0.5 ml mixture of ketamine (13 mg/ml) and xylazine (87 mg/ml). Both jugular veins and a carotid artery were cannulated through a midline neck incision. One jugular vein was used to maintain the anesthesia (2 mg/ml ketamine, 0.25 mg/ml xylazine in 5% guaifenesin) at a rate of 2-3 ml/hour, and the other was used to infuse SR. The blood pressure and heart rate were continuously monitored from the carotid artery during the NMR experiments using a Gould transducer and Coulbourn polygraph. A tracheotomy was performed and the rat was connected to a respirator and maintained at a respiration rate of 90 breaths/minute and a tidal volume of 3 cc. The rats were also nephrectomized to eliminate clearance of the shift reagent, except in those animals where SR clearance was measured. Livers were exposed through a subcostal incision and a surface coil was positioned directly on the liver with the animal in a supine position. The animals were maintained at 37° C. using a water recirculating heating pad.
The washout rate of TmDOTP^5- was measured by monitoring the frequency of the shifted ^23 Na peak after stopping the infusion.

[2] = test system: renal phosphate metabolites; experiment: In vivo ^31 P NMR of kidney and blood pressure during TmDOTP^5- infusion; set-up: species or system rat (Sprague-Dawley)
[3] = test system: rat liver Na^+ (i) and Na^+ (e)
Method: Rats with third degree burns covering 40% of the body surface were employed. Adult male Sprague-Dawley rats (300-500 g) were randomly divided into burn (n=7) and sham-burn (n=4) groups. […] Rats were deeply anesthetized with methoxyflurane, shaved, and secured in a template device. A full-thickness scald burn over 40% of the total body surface area was produced by immersing the exposed body surface into a 100° C. water bath for 12 s on the back and sides. The animals were quickly dried after each exposure to avoid additional injury. […] The sham-burn rats were anesthetized and handled in an identical manner except they were exposed to room temperature water. After recovery from inhalation anesthesia, the animals were placed in separate cages and given food and water ad libitum.
At 24-hr postburn, the animals were anesthetized by intramuscular injection of a 0.5 ml mixture of ketamine (87 mg/ml) and xylazine (13 mg/ml) and were placed on a warming blanket. The left femoral vein, left femoral artery, and left jugular vein were cannulated for supplemental anesthesia for arterial blood pressure measurement and for infusion of the shift reagent, respectively. Heparinized saline, 9 U/ml, was used in the arterial line. A midline laparotomy was performed to expose the liver, and the xiphoid process was removed. Each rat was then secured in a cradle in an upright position for the MRS experiments. A 2.2 cm diameter surface coil dual tuned to 47 MHz for ^23 Na and 72 MHz for ^31 P was positioned over the intersection of the three major lobes and the abdominal incision was sutured in separate layers around the insulated coil leads to prevent fluid and heat loss during NMR data collection.
Concurrent ^23 Na and ^31 P spectra were collected using a Nicolet NT 180 spectrometer with an Oxford 4.2 T vertical bore (130 mm) superconducting magnet. The field homogeneity was adjusted first with the ^1 H free induction decay (FID) from the liver and then with the ^23 Na FID for maximum field uniformity. A ^23 Na line width of 40-50 Hz was typical. ^23 Na spectra were generated from the summed FIDs of 100 excitation pulses (40 μs) at 105-ms intervals using 1,024 word data files and a sweep width of ±3000 Hz. The spectra were zero-filled to 4,096 points before Fourier transformation. The relative areas of the Na^+ (i) and Na^+ (e) resonances in the ^23 Na spectra and of the β-ATP and Pi resonances in the phosphorus spectra were determined with the GEMCAP curve analysis program supplied with the Nicolet software.
After initial baseline spectra were obtained, infusion of TmDOTP^5 was begun at 0.5 mmol kg^-1 h^-1, and the rate was increased slowly to 1.2 or 1.6 mmol kg^-1 h^- over a period of 12 min. […]

[4] = test system: intra- and extracellular sodium of rat liver; experiment: In vivo ^23 Na NMR shift experiments in rat liver during shift reagent infusion; conditions: for ^23 Na shift and line broadening in words: DyTTHA^3- versus TmDOTP^5-; for dose required to induce a ^23 Na shift of 5 ppm: body weight; for peak width at half height, extracellular resonance / peak width at half height, intracellular resonance: resonances separated by 5 ppm
Method: as §1
(§2) SR Infusion: Stock solutions of 80 mM TmDOTP^5- or 400 mM DyTTHA^3- were initially infused at a rate of 2 ml/hr for 6 minutes. […] After achieving a chemical shift difference of 5-7 ppm between the intra- and extracellular sodium resonances, the infusion rate was reduced to 2-3 ml/hr. No Ca^2+ was added during infusion of either SR.
(§3) NMR Data Collection: All in vivo NMR experiments were performed on a 4.7-T 40-cm GE CSI Omega spectrometer (GE NMR Instruments, Fremont, Calif.). Shimming was performed on the sodium signal. A sodium line width of 35-40 Hz was typical. Both ^23 Na and ^31 P spectra were collected in an interleaved fashion during TmDOTP^5- infusion. […] The coil performance was optimized such that there was less sensitivity loss at the ^31 P frequency as compared to at the ^23 Na frequency.
(§4) Switching of these parameters and the spectrometer frequency was executed by a script in an automated fashion. To take advantage of the short spin-lattice relaxation time of sodium, two ^23 Na acquisitions were collected between each ^31 P acquisition. Cyclops phase cycling was used for both the nuclei. […] The FIDs were Fourier transformed after base-line correction and a single exponential multiplication corresponding to 10 Hz line broadening for ^23 Na and a 20 Hz line broadening for ^31 P.

[5] = rat, in vivo
Method: as §1, §2
(§5) Several key physiological measurements were obtained on a group of animals (n=7) during infusion of TmDOTP^5- using the same protocol as used during all subsequent NMR measurements. […] Excess Ca^2+ was not coadded with the SR in these experiments, unlike in isolated perfused heart experiments where excess Ca^2+ must be coadded with TmDOTP^5- to maintain an extracellular free [Ca^2+ ] of about 1 mM.
(§6) Serum sodium, potassium, and hemoglobin concentrations as well as arterial pH, pCO2 and pO2 were monitored throughout the infusion protocol using a standard clinical blood gas analyzer.

[6] = live rats, Bansal et al. 1992; cited from earlier work
[7] = Physiological measurements (heart rate, pressure, blood serum and gas values) in rats during TmDOTP^5- infusion; conditions: doses required for baseline resolution of ^23 Na resonances
Method: as §1, §2, §5, §6

[8] = test system: in vivo exposed livers; conditions: rat
Method: Animal Preparation: Male Sprague-Dawley rats weighing 350-450 g were initially anesthetized by intramuscular injection of a 0.5 ml mixture of ketamine (13 mg/ml) and xylazine (87 mg/ml). Both jugular veins and a carotid artery were cannulated through a midline neck incision. One jugular vein was used to maintain the anesthesia (2 mg/ml ketamine, 0.25 mg/ml xylazine in 5% guaifenesin) at a rate of 2-3 ml/hour, and the other was used to infuse SR. The blood pressure and heart rate were continuously monitored from the carotid artery during the NMR experiments using a Gould transducer and Coulbourn polygraph. A tracheotomy was performed and the rat was connected to a respirator and maintained at a respiration rate of 90 breaths/minute and a tidal volume of 3 cc. The rats were also nephrectomized to eliminate clearance of the shift reagent, except in those animals where SR clearance was measured. […]
The resting transmembrane potential (-Em) was measured in in vivo exposed livers using a modified Ling-Gerard ultramicroelectrode Holliday, R. L., Illner, H. P. & Shires, G. T. (1981) J. Surg. […] Serum sodium, potassium, and hemoglobin concentrations as well as arterial pH, pCO2 and pO2 were monitored throughout the infusion protocol using a standard clinical blood gas analyzer.

[9] = rat, in vivo; remark: listed apart in the source
Method: Rats with third degree burns covering 40% of the body surface were employed. Adult male Sprague-Dawley rats (300-500 g) were randomly divided into burn (n=7) and sham-burn (n=4) groups. […] Rats were deeply anesthetized with methoxyflurane, shaved, and secured in a template device. A full-thickness scald burn over 40% of the total body surface area was produced by immersing the exposed body surface into a 100° C. water bath for 12 s on the back and sides. The animals were quickly dried after each exposure to avoid additional injury. No postburn analgesics were administered for this model, since the burn injury was a full-thickness burn that destroys all cutaneous nerve endings; as a result, the rats experienced no postburn pain as evidenced by their eating, drinking, moving freely around the cage, and responding to external stimulus. The sham-burn rats were anesthetized and handled in an identical manner except they were exposed to room temperature water. After recovery from inhalation anesthesia, the animals were placed in separate cages and given food and water ad libitum.
At 24-hr postburn, the animals were anesthetized by intramuscular injection of a 0.5 ml mixture of ketamine (87 mg/ml) and xylazine (13 mg/ml) and were placed on a warming blanket. The left femoral vein, left femoral artery, and left jugular vein were cannulated for supplemental anesthesia for arterial blood pressure measurement and for infusion of the shift reagent, respectively. Heparinized saline, 9 U/ml, was used in the arterial line. A midline laparotomy was performed to expose the liver, and the xiphoid process was removed. Each rat was then secured in a cradle in an upright position for the MRS experiments. A 2.2 cm diameter surface coil dual tuned to 47 MHz for ^23 Na and 72 MHz for ^31 P was positioned over the intersection of the three major lobes and the abdominal incision was sutured in separate layers around the insulated coil leads to prevent fluid and heat loss during NMR data collection. […]

[10] = test system: rat liver phosphate metabolites and intracellular pH; experiment: In vivo ^31 P NMR (interleaved) of rat liver during shift reagent infusion
Method: as §1, §2, §3, §4

[11] = test system: rat brain; conditions: cited from earlier work
[12] = test system: kidney sodium; experiment: In vivo ^23 Na NMR of kidney during shift reagent infusion; set-up: species or system rat (Sprague-Dawley)
Method: Male Sprage-Dawley rats were prepared for magnetic resonance exam and TmDOTP^5- was infused into animals as described in Example 2. TmDOTP^5- produced well resolved ^23 Na resonances in the kidney with a separation of 7-10 ppm between the extra- and intracellular Na^+ resonances after infusion of about 0.681 mmoles of the SR per Kilogram of Body Weight (KgBW). The inventors also observed a third ^23 Na resonance, broader than the extracellular resonance and shifted to about 35 ppm. This is the first time this resonance has been observed in any SR aided experiment in any organ. After about 10 minutes of TmDOTP^5- infusion (infusion dose 0.147 mmoles/KgBW), one broad shifted resonance became apparent at about 15 ppm. Continued infusion of the SR shifted this resonance further upfield. Simultaneously, another resonance became visible as a high frequency shoulder on the unshifted resonance after about 14 minutes of infusion (infusion dose 0.254 mmoles/KgBW). Finally, the three resonances became clearly resolved after about 17 minutes of infusion (infusion dose 0.334 mmoles/KgBW).
The single ^23 Na resonance broadened with infusion of this shift reagent and the intracellular Na^+ resonance became evident as a shoulder on the shifted extracellular Na^+ resonance only after 3-5 mmoles of DyTTHA^3- /KgBW had been infused.

[13] = Bansal et al. 1992; cited from earlier work
[14] = test system: rat muscle; conditions: cited from earlier work
[15] = test system: sodium in in vivo liver; experiment: In vivo liver ^23 Na NMR with DyTTHA^3- (Blum et al., literature); conditions: dose of Blum et al. versus present methods
Method: This dose is about 4-6 times greater than a typical dose of MRI contrast agent (0.1-0.2 mmole kg^-1 ), such as GdDTPA^2-. The inventors are aware of only one other ^23 Na NMR study of in vivo liver using a SR. Blum, H., Osbakken, M. D. & Johnson, R. G. (1991) Magn. Reson. Med. 18, 348-357 infused 6 mmoles kg^-1 h^-1 of DyTTHA^3- for 60 to 90 minutes to discriminate between intra- and extracellular sodium. This SR dose is 8-12 times larger than the amount of TmDOTP^5- employed using the methods of the present invention. After DyTTHA^3- infusion, Blum, H., Osbakken, M. D. & Johnson, R. G. (1991) Magn. Reson. […] This is extremely important for valid measurement of tissues volumes, relaxation rates, and ^23 Na visibility during physiological interventions.

[16] = test system: sodium in in vivo liver; conditions: cited from earlier work
[17] = ^23 Na NMR of blood and urine samples during shift reagent infusion; assay type: in vivo, rat (Sprague-Dawley); conditions: after DyTTHA^3- infusion
Description: ^23 Na spectra obtained from the analysis of the blood and urine samples collected during infusion of either TmDOTP^5- or DyTTHA^3- were compared with the respective in vivo kidney spectrum. […] There was a signal from the urine sample at abut 35 ppm after infusion of DyTTHA^3- also, though there was no distinguishable signal in the corresponding in vivo spectrum (FIG. 3A and FIG. 3B).

## thulium(III) 1,4,7,10-tetraazacyclododecane-1,4,7,10-tetrakis (methylene phosphonate) [TmDOTP^5-]
[1]
  washout t1/2: 9 min
[2]; kidney
  renal high energy phosphate levels: unaffected
[2]; kidney during infusion
  ^31 P resonance areas and chemical shifts, kidney: did not produce any change
[2]; kidney study
  blood pressure of the animals: small drop in blood pressure
[3]; burned rats, liver
  total dosage needed to produce an equivalent Na^+ shift, burned animals: 0.44 ± 0.04 mmol
[3]; control rats, liver
  total dosage needed to produce an equivalent Na^+ shift, control animals: 0.64 ± 0.08 mmol
[3]; rat, in vivo
  Na^+ (i) concentration in hepatic cells on infusion: did not alter Na^+ (i) concentration in hepatic cells
  ^31 P spectra of livers during infusion: did not change appreciably
[4]; rat liver
  dose at which intra- and extracellular ^23 Na resonances were clearly resolved: 0.55 mmol/kg
  intracellular Na^+ peak intensity with further infusion: did not change with further infusion
  resolution of intra- and extracellular ^23 Na resonances in words: sharp and well resolved; also recorded: baseline resolved peaks
  ^23 Na shift and line broadening in words: larger ^23 Na chemical shift per unit concentration
  dose required to induce a ^23 Na shift of 5 ppm: 0.65 mmol/kg
  peak width at half height, extracellular resonance: 80 Hz
  peak width at half height, intracellular resonance: 70 Hz
[4]; rat liver, after 0.65 mmoles kg^-1
  paramagnetic shift of extracellular Na^+: approximately 5 ppm
[5]
  arterial pCO2: 45±2 mm Hg
  arterial pH: 7.36±0.02
  arterial pO2: 120±8 mm Hg
  developed pressure during infusion: 40±5 mm Hg
  free Ca^2+ levels in blood serum: relatively small change
  heart rate during infusion: 240±20
  hemoglobin: 13 ± 1 g/dL
  increase in serum sodium: 10 meq/L
  mean arterial pressure (MAP) during infusion: ~70 mm Hg
  serum potassium: 3.5±0.2 meq/L
  serum sodium after infusion: 158±5 meq/L
[6]
  Ca^2+ release from body stores during infusion: rapidly released from body stores
[7]
  liver physiology / tolerability in words: may be safely used in intact animal studies without the co-addition of Ca^2+; also recorded: basic liver physiology is largely unaffected; also recorded: quite non-perturbing to the animal
[8]
  resting transmembrane potential (-Em) of liver: tended to increase during the highest infusion rates
[9]
  heart rate throughout the study: 261±19 beats/min
  mean arterial blood pressure (MAP) after infusion, burn group: 65±4 mm Hg
  mean arterial blood pressure (MAP) after infusion, sham burn group: 78±3 mm Hg
[10]; rat liver during infusion
  ^31 P resonances / phosphate metabolites: without producing any changes in phosphate metabolite resonances; also recorded: unaffected
[10]; rat liver, from shift of inorganic phosphate peak
  intracellular pH: without producing any changes in phosphate metabolite resonances or intracellular pH; also recorded: unaffected
[11]
  washout t1/2: 37 min
[12]; kidney in vivo
  intracellular Na^+ resonance intensity with further infusion, kidney: does not change with further SR infusion
  resolution of Na^+ resonances in kidney in words: well resolved
[12]; kidney, about 0.681 mmoles/KgBW
  separation between extra- and intracellular Na^+ resonances: 7-10 ppm
[12]; kidney, about 10 minutes, 0.147 mmoles/KgBW
  shift of broad shifted resonance: about 15 ppm
[12]; kidney, about 14 minutes
  infusion dose at which second resonance became visible as shoulder: 0.254 mmoles/KgBW
[12]; kidney, about 17 minutes
  infusion dose at which three resonances became clearly resolved: 0.334 mmoles/KgBW
[12]; kidney, after TmDOTP^5- infusion
  shift of third ^23 Na resonance: about 35 ppm
[13]
  crossing of the blood brain barrier: does not cross the blood brain barrier

## O=C([O-])CN(CCN(CCN(CC(=O)[O-])CC(=O)[O-])CC(=O)[O-])CCN(CC(=O)[O-])CC(=O)[O-].[Dy+3] [DyTTHA^3-, dysprosium(III)triethylenetetraminehexaacetate]
[4]; rat liver
  broadening factor of intracellular resonance line-width, DyTTHA^3- versus TmDOTP^5-: ~3 factor
  resolution of intra- and extracellular ^23 Na resonances in words: very broad and not resolved; also recorded: did not improve the resolution of intra- and extracellular resonances
  ^23 Na shift and line broadening in words: much lower ^23 Na shift per unit concentration and more severe line broadening
  dose required to induce a ^23 Na shift of 5 ppm: 3.74 mmol/kg
  peak width at half height, extracellular resonance: 300 Hz
  peak width at half height, intracellular resonance: 195 Hz
[4]; versus TmDOTP^5-
  hemodynamic stability during infusion: hemodynamically more stable
[14]
  washout t1/2: 44 min
[15]
  dose ratio of DyTTHA^3- versus TmDOTP^5-: 8-12 times
[16]; 6 mmoles kg^-1 h^-1 for 60 to 90 minutes
  resolution of sodium resonances in words: very broad and were not resolved
[16]; Blum et al.
  extracellular Na^+ signal shift in words: shifted downfield by about the same amount as in the present study
[17]
  shift of ^23 Na signal from urine sample: ~35 ppm
[12]; kidney
  dose at which intracellular Na^+ resonance became evident as a shoulder: 3-5 mmoles/KgBW
  dose ratio versus TmDOTP^5- for comparable shift: 5-8 times
[12]; kidney in vivo
  resolution of Na^+ resonances in kidney in words: did not produce resolved Na^+ resonances
  third highly shifted Na^+ resonance in kidney in words: no indication of the existence of the third highly shifted Na^+ resonance
